Results taken from ChEMBL document CHEMBL3091344, “17(E)-picolinylidene androstane derivatives as potential inhibitors of prostate cancer cell growth: antiproliferative activity and molecular docking studies” (Bioorg Med Chem, 2013).

Key:
[1] = system: HT-29; experiment: Cytotoxicity against human HT-29 cells assessed as growth inhibition after 48 hrs by MTT assay; assay type: functional, cell-based; conditions: HT-29, 48 h
[2] = system: MCF7; experiment: Cytotoxicity against ER-positive human MCF7 cells assessed as growth inhibition after 48 hrs by MTT assay; assay type: functional, cell-based; conditions: MCF7, 48 h
[3] = system: PC-3; experiment: Cytotoxicity against human PC3 cells assessed as growth inhibition after 48 hrs by MTT assay; assay type: functional, cell-based; conditions: PC-3, 48 h
[4] = system: MDA-MB-231; experiment: Cytotoxicity against ER-negative human MDA-MB-231 cells assessed as growth inhibition after 48 hrs by MTT assay; assay type: functional, cell-based; conditions: MDA-MB-231, 48 h
[5] = system: HeLa; experiment: Cytotoxicity against human HeLa cells assessed as growth inhibition after 48 hrs by MTT assay; assay type: functional, cell-based
[6] = system: MRC5; experiment: Cytotoxicity against human MRC5 cells assessed as growth inhibition after 48 hrs by MTT assay; assay type: cell-based; conditions: MRC5, 48 h
[7] = system: MDA-MB-231; experiment: Cytotoxicity against ER-negative human MDA-MB-231 cells assessed as growth inhibition after 48 hrs by SRB assay; assay type: functional, cell-based; conditions: MDA-MB-231, 48 h
[8] = system: MRC5; experiment: Cytotoxicity against human MRC5 cells assessed as growth inhibition after 48 hrs by SRB assay; assay type: cell-based; conditions: MRC5, 48 h
[9] = system: MCF7; experiment: Cytotoxicity against ER-positive human MCF7 cells assessed as growth inhibition after 48 hrs by SRB assay; assay type: functional, cell-based; conditions: MCF7, 48 h
[10] = system: PC-3; experiment: Cytotoxicity against human PC3 cells assessed as growth inhibition after 48 hrs by SRB assay; assay type: functional, cell-based; conditions: PC-3, 48 h

| Compound | IC50 [1] | IC50 [2] | IC50 [3] | IC50 [4] | IC50 [5] | IC50 [6] | IC50 [7] | IC50 [8] | IC50 [9] | IC50 [10] |
| --- | --- | --- | --- | --- | --- | --- | --- | --- | --- | --- |
| COc1cccc2c1C(=O)c1c(O)c3c(c(O)c1C2=O)C[C@@](O)(C(=O)CO)C[C@@H]3O[C@H]1C[C@H](N)[C@H](O)[C@H](C)O1 [DOXORUBICIN] | 0.32 µM | 0.75 µM |  |  |  |  |  |  |  |  |
| C#CCC[C@@]1(C)C(=O)CC[C@@H]2[C@@H]1CC[C@@]1(C)[C@H]2CC[C@@]1(O)Cc1ccccn1 | 6.5 µM | > 100 µM | > 100 µM | > 100 µM | > 100 µM | > 100 µM |  |  |  |  |
| C[C@]12CC[C@H]3[C@@H](CC[C@]45O[C@H]4C(=O)CC[C@]35C)[C@@H]1CC/C2=C\c1ccccn1 |  | 50.7 µM | 14.3 µM | 88.3 µM |  | > 100 µM |  |  |  |  |
| C[C@]12CCC(=O)C=C1CC[C@@H]1[C@@H]2CC[C@@]2(C)[C@H]1CC[C@@]2(O)Cc1ccccn1 |  |  |  |  |  |  | > 100 µM | > 100 µM | > 100 µM | > 100 µM |
| C[C@]12CCC(=O)C=C1CC[C@@H]1[C@@H]2CC[C@]2(C)/C(=C/c3ccccn3)CC[C@@H]12 |  |  |  |  |  |  | > 100 µM | > 100 µM | > 100 µM | 12.9 µM |
| C[C@]12CC/C(=N\N)C=C1CC[C@@H]1[C@@H]2CC[C@@]2(C)[C@H]1CC[C@@]2(O)Cc1ccccn1 | > 100 µM | 6.3 µM | > 100 µM | 32.5 µM | > 100 µM | > 100 µM |  |  |  |  |
| C[C@]12CC/C(=N\N)C=C1CC[C@@H]1[C@@H]2CC[C@]2(C)/C(=C/c3ccccn3)CC[C@@H]12 | 51.7 µM | 13.6 µM | 5.9 µM | 17.1 µM | > 100 µM | > 100 µM |  |  |  |  |
| C[C@]12CC[C@H]3[C@@H](CC[C@]45O[C@H]4C(=O)CC[C@]35C)[C@@H]1CC[C@@]2(O)Cc1ccccn1 |  | > 100 µM | 65.5 µM | 10.4 µM |  | > 100 µM |  |  |  |  |
| C[C@]12CC[C@H]3[C@@H](CC[C@@]4(O)C=CCC[C@]34C)[C@@H]1CC[C@@]2(O)Cc1ccccn1 | > 100 µM | > 100 µM | > 100 µM | > 100 µM | > 100 µM | > 100 µM |  |  |  |  |
| C[C@]12CCC(=O)C(O)=C1CC[C@@H]1[C@@H]2CC[C@]2(C)C(=O)CC[C@@H]12 [FORMESTANE] | > 100 µM | > 100 µM |  |  |  | > 100 µM |  |  |  |  |
| C[C@]12CC[C@H]3[C@@H](CC[C@@]4(O)C=CCC[C@]34C)[C@@H]1CC/C2=C\c1ccccn1 | 57.2 µM | > 100 µM | > 100 µM | > 100 µM | 49.4 µM | > 100 µM |  |  |  |  |
| C[C@]12CC[C@H](O)CC1=CC[C@@H]1[C@@H]2CC[C@]2(C)C(c3cccnc3)=CC[C@@H]12 [ABIRATERONE] |  |  | 9.32 µM |  |  |  |  |  |  |  |
